Where “and” joins values, the source holds several entries; their conditions need not be identical. Equal values may be shown once. Read-outs that look alike come from different tables or passages of the source.
What was measured:
DUBs in HEK293 lysate = test: Activity-based protein profiling in the lysate with Ub-VS competition; assay type: binding, human; settings: 1 µM, 1 h
Method: Cells (4 × 10^6) were seeded in 10 cm dishes and grown to 90% confluency. The medium was aspirated, cells were washed with ice-cold PBS, treated with 600 µL ABP lysis buffer (1% (v/v) IGEPAL, 50 mM Tris, 150 mM NaCl, 5% glycerol, pH 8, cOmplete protease inhibitor cocktail), and incubated on ice for 15 min. The lysed cells were scrapped off the dish, cleared by centrifugation, and the protein concentration was determined via a Bradford assay. […] Each compound was diluted to a 2x concentration in PBS buffer from a 10 mM stock in DMSO (final concentration: 1 µM). Then each compound dilution or a DMSO dilution was mixed with cell lysate and incubated for one hour at room temperature. […] Samples were resolved by SDS-PAGE using a 4–12% Bis-Tris gel (Invitrogen, NuPAGE) with MES SDS running buffer for 50 min at 180 V. Fluorescence was read out using the Alexa564 (λex/em 520–545/577–613 nm, for TAMRA) and Alexa680 (λex/em 650–675/700–730 nm, for the PageRuler Prestained NIR Protein Ladder (Thermo Scientific)) channels on a ChemiDoc MP Imaging System (Bio-Rad).

UCHL1 in HEK293 cells = system: T1, UCHL1 in HEK293 cells; test: Cellular Ub-probe (HA-Ub-VS) competition, inhibition of cellular UCHL1; assay type: cell-based, human
T1 construct: Western blot analysis of endogenous UCHL1 labeled with HA-Ub-VS after treatment of HEK293 cells; endogenous in cells; host or cells: HEK293
Method: Proteins were transferred to a polyvinylidene fluoride (PVDF, only experiments in Fig. 4e and Supplementary Fig. 7e, f) or nitrocellulose (all other experiments) membrane using a Trans-Blot Turbo system (Bio-Rad, 1.3 A, 25 V, 10 min). The membranes were blocked with 5% (m/v) nonfat milk in PBS-T buffer and incubated with indicated primary antibodies (anti-UCHL1, 1:1000, Cell Signaling, D3T2E; anti-PARK7, 1:1000, Cell Signaling, D29E5; anti-Tubulin, 1:4000, Sigma, T6199; anti-Hemagglutinin, 1:1000, BioLegend, 16B12; anti-flag, 1:2000, Sigma, F3165; anti-Ubiquitin, 1:1000, Cell Signaling, P4D1; anti-Ubiquitin, 1:300, Santa Cruz, P4D1, sc-8017; anti-UCHL3, 1:1000, Proteintech, 12384-1-AP) overnight. Then the membranes were incubated with the respective secondary antibody (anti-mouse,1:5000, Sigma, NXA931; anti-rabbit, 1:5000, Sigma, GENA934) coupled to horseradish peroxidase. The chemiluminescent reaction was initiated using a Clarity Western ECL substrate (Bio-Rad) and images were taken on a ChemiDoc MP Imaging System (Bio-Rad).
The total protein concentration was adjusted to 2 mg/ml by diluting each sample with ABP lysis buffer. A final concentration of 1 µM HA-Ub-VS probe was added, followed by incubation for 30 min at 37 °C. The labeling reaction was quenched by the addition of 4x LDS sample buffer. The samples were separated via SDS-PAGE and further analyzed via western blotting as described above.

UCHL1 [1] = biological target: T2, UCHL1 (Homo sapiens, UniProt P09936); test: Ub-Rhodamine (Ubiquitin rhodamine cleavage) assay; assay type: biochemical; settings: 1 h preincubation
T2 sequence (P09936 1-223): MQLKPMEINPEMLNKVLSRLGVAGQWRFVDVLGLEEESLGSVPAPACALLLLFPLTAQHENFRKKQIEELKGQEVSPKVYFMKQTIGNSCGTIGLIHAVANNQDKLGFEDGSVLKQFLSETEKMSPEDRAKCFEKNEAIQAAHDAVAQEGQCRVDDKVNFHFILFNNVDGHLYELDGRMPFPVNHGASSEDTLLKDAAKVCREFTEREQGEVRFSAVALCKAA

UCHL1 [2] = biological target: T2, UCHL1; test: Thermal shift assay; assay type: binding; settings: UCHL1 1 µM, 1 h, replicates
Method: Reactions were performed in white 96-well PCR plates (Bio-Rad). UCHL1 was diluted in thermal shift buffer (1x PBS, 5 mM DTT) to a 4x concentration of 4 µM. The protein was then mixed with 4x compound dissolved in thermal shift buffer in a 1:1 ratio. To each well was added 20 µL of DUB-Inhibitor solution, followed by 1 h incubation time. To each well was then added 20 µL 4x SYPRO Orange in thermal shift buffer. After sealing the plates with a transparent film, thermal denaturation (gradient: 20–90 °C; Increment: 0.3 °C, hold for 5 s before read) was performed and monitored by a Bio-Rad Connect cycler.

For `C#CCCC(=O)NCc1ccc(-c2cccc(Oc3ccnc(C#N)n3)c2)cc1` [CG017], which “DUB engagement (Ub-VS competitive labeling)” value (DUBs in HEK293 lysate) is on record?
Its value is “did not show any covalent-irreversibly bound proteins at all”.

With `C#CCCC(=O)Nc1cccc(/C=C/c2ccc3c(C#N)c(N)[nH]c3c2)c1` [CG041] as the compound, how does the “DUB engagement (Ub-VS competitive labeling)” value (DUBs in HEK293 lysate) read?
The value was “did not show any covalent-irreversibly bound proteins at all”.

How did the “DUB engagement (Ub-VS competitive labeling)” value (DUBs in HEK293 lysate) turn out when `C#CCn1cc(-c2ccc(C(=O)N[C@@H]3CCN(C#N)C3)c(F)c2)cn1` [CG50R] was run?
Its value is “did not show DUB engagement”.

`N#CN1CCC[C@H]1C(=O)N1CCc2c(-c3ccnc4[nH]ccc34)cccc21` [Cpd117, reference compound] was tested. Which “inhibition of cellular UCHL1” value (UCHL1 in HEK293 cells; after 1 h (Supplementary Fig. 5f)) did it give?
Its value is “very low degree of inhibition”.

What about the “inhibition of cellular UCHL1” value (UCHL1 in HEK293 cells; after 24 h incubation (Supplementary Fig. 5f)) of the same compound?
The value was “no inhibition of cellular UCHL1 at all”.

What about the IC50 (UCHL1 [1]; mean ± SD of independent experiments, read-out: IC50 (UCHL1)) of the same compound?
Its IC50 is 9 ± 3 nM.

What does the source list for `COCCNC(=O)c1ccc(-n2cnc(NC(=O)[C@H]3CCN(C#N)C3)c2)cc1` [Cpd158, reference compound]?
melting temperature (Tm) of UCHL1 (UCHL1 [2]; compound 1.25 µM): 59.4; melting temperature (Tm) of UCHL1 (UCHL1 [2]; compound 2.5 µM): 59.4; melting temperature (Tm) of UCHL1 (UCHL1 [2]; compound 5 µM): 59.1 and 59.4; inhibition of cellular UCHL1 (UCHL1 in HEK293 cells; HEK293 cells, 1 and 5 µM, 1 h and 24 h (Supplementary Fig. 5f)): time- and concentration-dependent inhibition; remaining activity at 0.000610352 µM (UCHL1 [1]; compound 0.610352 nM, read-out: UCHL1 activity, data point mean): 96.9%; remaining activity at 0.0012207 µM (UCHL1 [1]; compound 1.2207 nM, read-out: UCHL1 activity, data point mean): 97.3%; remaining activity at 0.00244141 µM (UCHL1 [1]; compound 2.44141 nM, read-out: UCHL1 activity, data point mean): 95.8%; remaining activity at 0.00488281 µM (UCHL1 [1]; compound 4.88281 nM, read-out: UCHL1 activity, data point mean): 91.1%; remaining activity at 0.00976562 µM (UCHL1 [1]; compound 9.76562 nM, read-out: UCHL1 activity, data point mean): 90.7%; remaining activity at 0.0195312 µM (UCHL1 [1]; compound 19.5312 nM, read-out: UCHL1 activity, data point mean): 86.9%; remaining activity at 0.0390625 µM (UCHL1 [1]; compound 39.0625 nM, read-out: UCHL1 activity, data point mean): 82%; remaining activity at 0.078125 µM (UCHL1 [1]; compound 78.125 nM, read-out: UCHL1 activity, data point mean): 76.7%; remaining activity at 0.15625 µM (UCHL1 [1]; compound 156.25 nM, read-out: UCHL1 activity, data point mean): 62.5%; remaining activity at 0.3125 µM (UCHL1 [1]; compound 312.5 nM, read-out: UCHL1 activity, data point mean): 34.6%; remaining activity at 0.625 µM (UCHL1 [1]; compound 625 nM, read-out: UCHL1 activity, data point mean): 14.3%; remaining activity at 1.25 µM (UCHL1 [1]; compound 1250 nM, read-out: UCHL1 activity, data point mean): 4.23%; remaining activity at 2.5 µM (UCHL1 [1]; compound 2500 nM, read-out: UCHL1 activity, data point mean): 2.34%; remaining activity at 5 µM (UCHL1 [1]; compound 5000 nM, read-out: UCHL1 activity, data point mean): 1.97%; remaining activity at 10 µM (UCHL1 [1]; compound 10000 nM, read-out: UCHL1 activity, data point mean): 1.42%; IC50 (UCHL1 [1]; source data Fig. 3b, read-out: Averaged IC50s from independent experiments (single experiments)): 222 nM and 36 nM and 129 nM and 153 nM and 104 nM
